Tests used:
Assay type in all cases: in vivo
[1] = tested on: duck salad (Heteranthera limosa); experiment: Test C flooded paddy test; details: for Ducksalad plant response rating: Flooded Paddy, scale 0 to 100, 0 no effect, 100 complete control; for Plant response rating, Ducksalad: flooded paddy test, scale 0 to 100 (0 no effect, 100 complete control)
Procedure, shortened: (§1)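 Plants were grown to the 2-leaf stage under flooded paddy conditions and treated. They were then kept in a greenhouse for 12 to 14 days and visually rated against untreated controls on a 0–100 scale, where 0 is no effect and 100 is complete control.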

[2] = tested on: barnyardgrass (Echinochloa crus-galli); experiment: Test C flooded paddy test; details: for Barnyardgrass plant response rating: Flooded Paddy, scale 0 to 100, 0 no effect, 100 complete control; for Plant response rating, Barnyardgrass: flooded paddy test, scale 0 to 100 (0 no effect, 100 complete control)
Procedure, shortened: as §1

[3] = tested on: smallflower flatsedge (Cyperus difformis); experiment: Test C flooded paddy test; details: for Flatsedge plant response rating: Flooded Paddy, scale 0 to 100, 0 no effect, 100 complete control; for Plant response rating, Flatsedge: flooded paddy test, scale 0 to 100 (0 no effect, 100 complete control)
Procedure, shortened: as §1

[4] = tested on: pigweed (Amaranthus retroflexus); experiment: Test C preemergence
Procedure, shortened: (§2)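 Preemergence: seeds sown then treated. Postemergence: plants 2–18 cm, 1- to 4-leaf. Both with surfactant-containing solvent formulation; visual injury scored 0–100 after 12–14 d.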

[5] = tested on: cocklebur (Xanthium strumarium); experiment: Test C preemergence
Procedure, shortened: as §2

[6] = tested on: bermudagrass (Cynodon dactylon); experiment: Test C preemergence
Procedure, shortened: as §2

Nightshade = experiment: Test C preemergence
kochia (Kochia scoparia) = experiment: Test C preemergence
Procedure, shortened: as §2

[7] = tested on: yellow nutsedge (Cyperus esculentus); experiment: Test C preemergence
Procedure, shortened: as §2

[8] = tested on: crabgrass (Digitaria sanguinalis); experiment: Test C preemergence
Procedure, shortened: as §2

[9] = tested on: woolly cupgrass (Eriochloa villosa); experiment: Test C preemergence
Procedure, shortened: as §2

[10] = tested on: johnsongrass (Sorghum halepense); experiment: Test C preemergence
Procedure, shortened: as §2

[11] = tested on: lambsquarters (Chenopodium album); experiment: Test C preemergence
Procedure, shortened: as §2

[12] = tested on: common ragweed (Ambrosia elatior); experiment: Test C preemergence
Procedure, shortened: as §2

[13] = tested on: goosegrass (Eleusine indica); experiment: Test C preemergence
Procedure, shortened: as §2

soybean (Glycine max) = experiment: Test C preemergence
Procedure, shortened: as §2

[14] = tested on: giant foxtail (Setaria faberii); experiment: Test C preemergence
Procedure, shortened: as §2

Sunflower = experiment: Test C preemergence; details: Rate 125 g/ha; scale 0 to 100, 0 no effect, 100 complete control
[15] = tested on: morningglory (Ipomoea hederacea); experiment: Test C preemergence
Procedure, shortened: as §2

corn (Zea mays) = experiment: Test C preemergence
Procedure, shortened: as §2

[16] = tested on: Surinam grass (Brachiaria decumbens); experiment: Test C preemergence
Procedure, shortened: as §2

[17] = tested on: velvetleaf (Abutilon theophrasti); experiment: Test C preemergence
Procedure, shortened: as §2

[18] = Rate 125 g/ha, scale 0 to 100, 0 no effect, 100 complete control
[19] = preemergence, Rate 62 g/ha, scale 0 to 100
[20] = preemergence, Rate 500 g/ha, visual evaluation after 12 to 14 days
[21] = preemergence, Rate 250 g/ha, scale 0 to 100, 0 no effect, 100 complete control

CC(C)(C)c1ccn(C2CCN(c3cccc(I)c3)C2=O)n1 (stereo not drawn) [Compound 88]
Ducksalad plant response rating ([1]; Rate 250 g/ha): 60
Ducksalad plant response rating ([1]; Rate 500 g/ha): 60
Plant response rating, Ducksalad ([1]; Rate 62 g/ha): 0
Plant response rating, Ducksalad ([1]; Rate 125 g/ha): 10
Barnyardgrass plant response rating ([2]; Rate 250 g/ha): 100
Barnyardgrass plant response rating ([2]; Rate 500 g/ha): 100
Plant response rating, Barnyardgrass ([2]; Rate 62 g/ha): 30
Plant response rating, Barnyardgrass ([2]; Rate 125 g/ha): 100
Flatsedge plant response rating ([3]; Rate 250 g/ha): 100
Flatsedge plant response rating ([3]; Rate 500 g/ha): 100
Plant response rating, Flatsedge ([3]; Rate 62 g/ha): 90
Plant response rating, Flatsedge ([3]; Rate 125 g/ha): 90
Plant response rating, Pigweed [4, 18]: 10
Plant response rating, Pigweed [4, 19]: 0
Plant response rating (0 to 100), Pigweed [4, 20]: 100
Plant response rating, Pigweed [4, 21]: 40
Plant response rating, Cocklebur [5, 18]: 0
Plant response rating, Cocklebur [5, 19]: 0
Plant response rating (0 to 100), Cocklebur [5, 20]: 20
Plant response rating, Cocklebur [5, 21]: 20
Plant response rating, Bermudagrass [6, 18]: 100
Plant response rating, Bermudagrass [6, 19]: 100
Plant response rating (0 to 100 where 0 is no effect and 100 is complete control), Bermudagrass [6, 20]: 100
Plant response rating, Bermudagrass [6, 21]: 100
Plant response rating, Nightshade (Nightshade; Rate 62 g/ha, scale 0 to 100): 30
Plant response rating, Nightshade (Nightshade; [18]): 20
Plant response rating, Nightshade (Nightshade; Rate 250 g/ha, scale 0 to 100, 0 no effect, 100 complete control): 80
Plant response rating, Kochia (kochia (Kochia scoparia); [18]): 90
Plant response rating, Kochia (kochia (Kochia scoparia); [19]): 70
Plant response rating (0 to 100), Kochia (kochia (Kochia scoparia); [20]): 100
Plant response rating, Kochia (kochia (Kochia scoparia); [21]): 100
Plant response rating, Nutsedge [7, 18]: 0
Plant response rating, Nutsedge [7, 19]: 0
Plant response rating (0 to 100), Nutsedge [7, 20]: 10
Plant response rating, Nutsedge [7, 21]: 0
Plant response rating, Crabgrass [8, 18]: 100
Plant response rating, Crabgrass [8, 19]: 100
Plant response rating (0 to 100), Crabgrass [8, 20]: 100
Plant response rating, Crabgrass [8, 21]: 100
Plant response rating, Cupgrass, Woolly [9, 18]: 90
Plant response rating, Cupgrass, Woolly [9, 19]: 60
Plant response rating (0 to 100), Cupgrass, Woolly [9, 20]: 100
Plant response rating, Cupgrass, Woolly [9, 21]: 100
Plant response rating, Johnsongrass [10, 18]: 10
Plant response rating, Johnsongrass [10, 19]: 10
Plant response rating (0 to 100), Johnsongrass [10, 20]: 100
Plant response rating, Johnsongrass [10, 21]: 40
Plant response rating, Lambsquarters [11, 18]: 100
Plant response rating, Lambsquarters [11, 19]: 100
Plant response rating (0 to 100), Lambsquarters [11, 20]: 100
Plant response rating, Lambsquarters [11, 21]: 100
Plant response rating, Ragweed, Common [12, 18]: 0
Plant response rating, Ragweed, Common [12, 19]: 0
Plant response rating (0 to 100), Ragweed, Common [12, 20]: 20
Plant response rating, Ragweed, Common [12, 21]: 0
Plant response rating, Goosegrass [13, 18]: 100
Plant response rating, Goosegrass [13, 19]: 100
Plant response rating (0 to 100), Goosegrass [13, 20]: 100
Plant response rating, Goosegrass [13, 21]: 100
Plant response rating, Soybean (soybean (Glycine max); [18]): 10
Plant response rating, Soybean (soybean (Glycine max); [19]): 0
Plant response rating (0 to 100), Soybean (soybean (Glycine max); [20]): 30
Plant response rating, Soybean (soybean (Glycine max); [21]): 10
Plant response rating, Foxtail, Giant [14, 18]: 100
Plant response rating, Foxtail, Giant [14, 19]: 0
Plant response rating (0 to 100), Foxtail, Giant [14, 20]: 100
Plant response rating, Foxtail, Giant [14, 21]: 100
Plant response rating, Sunflower (Sunflower): 40
Plant response rating, Morningglory [15, 18]: 10
Plant response rating, Morningglory [15, 19]: 10
Plant response rating (0 to 100), Morningglory [15, 20]: 30
Plant response rating, Morningglory [15, 21]: 30
Plant response rating, Corn (corn (Zea mays); [18]): 10
Plant response rating, Corn (corn (Zea mays); [19]): 0
Plant response rating (0 to 100), Corn (corn (Zea mays); [20]): 100
Plant response rating, Corn (corn (Zea mays); [21]): 70
Plant response rating, Surinam grass [16, 18]: 30
Plant response rating, Surinam grass [16, 19]: 40
Plant response rating (0 to 100), Surinam grass [16, 20]: 100
Plant response rating, Surinam grass [16, 21]: 70
Plant response rating, Velvetleaf [17, 18]: 10
Plant response rating, Velvetleaf [17, 19]: 0
Plant response rating (0 to 100), Velvetleaf [17, 20]: 20
Plant response rating, Velvetleaf [17, 21]: 10
